Measured values taken from patent EP4603105A1, “PHARMACEUTICAL COMPOSITION CONTAINING CYCLIC COMPOUND HAVING SELECTIVE KRAS INHIBITORY EFFECT AGAINST HRAS AND NRAS” (CHUGAI SEIYAKU KABUSHIKI KAISHA, priority 2022, dated 2024).

Experiments:
HRAS wild-type protein = HRAS wild-type protein (Homo sapiens, UniProt P01112); assay: Binding to HRAS by surface plasmon resonance (SPR), KD and KD ratio to KRAS; conditions: ratio of KD for HRAS wild-type protein to KD for KRAS
Procedure, shortened: (§1)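 Recombinant RAS proteins bearing a biotinylated Avi tag and loaded with GDP served as the captured ligand, recaptured fresh every cycle. Binding responses were referenced to an uncoated surface and a buffer-only blank cycle. Dissociation constants were obtained by 1:1 model fitting at 30°C.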

[1] = tested on: human lung cancer strain NCI-H441; type: cell-based
Procedure, shortened: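 Signal came from […] measured per well once the reagent was added. Beforehand, cells were cultured at 37°C and 5% carbon dioxide on a compound series serially diluted in dimethyl sulfoxide.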

[2] = biological target: GDP-bound NRAS wild-type protein (Homo sapiens, UniProt P01111); assay: Binding to NRAS by surface plasmon resonance (SPR), KD and KD ratio to KRAS; conditions: ratio of KD for GDP-bound NRAS wild-type protein to KD for KRAS
Procedure, shortened: as §1

GDP-bound NRAS wild-type protein, sequence (P01111 whole entry): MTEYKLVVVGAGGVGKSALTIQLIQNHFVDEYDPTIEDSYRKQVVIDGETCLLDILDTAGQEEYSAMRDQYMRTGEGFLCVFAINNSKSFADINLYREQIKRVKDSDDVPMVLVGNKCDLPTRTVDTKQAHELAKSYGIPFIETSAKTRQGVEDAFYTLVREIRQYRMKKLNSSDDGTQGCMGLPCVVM
HRAS wild-type protein, sequence (P01112 whole entry): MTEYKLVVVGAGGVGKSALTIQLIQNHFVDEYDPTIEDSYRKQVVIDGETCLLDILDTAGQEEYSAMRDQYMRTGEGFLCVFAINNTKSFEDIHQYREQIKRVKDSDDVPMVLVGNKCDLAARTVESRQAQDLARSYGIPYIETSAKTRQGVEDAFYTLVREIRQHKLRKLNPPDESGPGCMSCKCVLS

| SMILES | HRAS /KRAS (HRAS wild-type protein) | IC50 [1] | NRAS /KRAS [2] |
| --- | --- | --- | --- |
| CCCO[C@@H]1C[C@H]2C(=O)NC3(CC(C)(C)C3)C(=O)N(C)[C@@H](C3CCCC3)C(=O)N(C)[C@H](C(=O)N(C)C)CC(=O)N(C)[C@H]3CCCCc4ccc(cc4)C[C@@H](C(=O)N(C)CC(=O)N[C@@H](CCc4ccc(C(F)(F)F)c(OC)c4)C(=O)N2C1)N1CC/C=C\C[C@@H](C1=O)N(C)C(=O)CN(C1CC1)C(=O)[C@H]([C@@H](C)CC)NC3=O [PP3082] | B (a compound having 3 or more and less than 10 is denoted as B) | 1.7 nM | B (a compound having 3 or more and less than 10 is denoted as B) |
| CC[C@H](C)[C@@H]1NC(=O)[C@@H]2CCCc3ccc(cc3)C[C@@H](C(=O)N(C)CC(=O)N[C@@H](CCc3ccc(C(F)(F)F)c(OC)c3)C(=O)N3C[C@H](OC4CCC4)C[C@H]3C(=O)NC3(CC(C)(C)C3)C(=O)N(C)[C@@H](C3CCCC3)C(=O)N(C)[C@H](C(=O)N(C)CC)CC(=O)N2C)N2CC/C=C\C[C@@H](C2=O)N(C)C(=O)CN(C)C1=O [PP3085] | B (a compound having 3 or more and less than 10 is denoted as B) | 6.3 nM | A (a compound having 10 or more and less than 20 is denoted as A) |
| CC[C@H](C)[C@@H]1NC(=O)[C@@H]2CCCc3ccc(cc3)C[C@@H](C(=O)N(C)CC(=O)N[C@@H](CCc3ccc(C(F)(F)F)c(OC)c3)C(=O)N3C[C@H](OC4CCCC4)C[C@H]3C(=O)NC3(CC(C)(C)C3)C(=O)N(C)[C@@H](C3CCCC3)C(=O)N(C)[C@H](C(=O)N(C)CC)CC(=O)N2C)N2CC/C=C\C[C@@H](C2=O)N(C)C(=O)CN(C)C1=O [PP3086] | B (a compound having 3 or more and less than 10 is denoted as B) | 7.9 nM | B (a compound having 3 or more and less than 10 is denoted as B) |
| CC[C@H](C)[C@@H]1NC(=O)[C@@H]2CCCc3ccc(cc3)C[C@@H](C(=O)N(C)CC(=O)N[C@@H](CCc3ccc(C(F)(F)F)c(OC)c3)C(=O)N3CC4(CC4)C[C@H]3C(=O)NC3(CC(C)(C)C3)C(=O)N(C)[C@@H](C3CCCC3)C(=O)N(C)[C@H](C(=O)N(C)CC)CC(=O)N2C)N2CC/C=C\C[C@@H](C2=O)N(C)C(=O)CN(C)C1=O [PP3087] | B (a compound having 3 or more and less than 10 is denoted as B) | 6.9 nM | A (a compound having 10 or more and less than 20 is denoted as A) |
| CCCO[C@@H]1C[C@H]2C(=O)NC3(CC(C)(C)C3)C(=O)N(C)[C@@H](C3CCCC3)C(=O)N(C)[C@H](C(=O)N(C)CC)CC(=O)N(C)[C@H]3CCCc4ccc(cc4)C[C@@H](C(=O)N(C)CC(=O)N[C@@H](CCc4ccc(C(F)(F)F)c(OC)c4)C(=O)N2C1)N1CC/C=C\C[C@@H](C1=O)N(C)C(=O)CN(C1CC1)C(=O)[C@H]([C@@H](C)CC)NC3=O [PP3088] | B (a compound having 3 or more and less than 10 is denoted as B) | 15.1 nM | B (a compound having 3 or more and less than 10 is denoted as B) |
| CCCO[C@@H]1C[C@H]2C(=O)NC3(CC(C)(C)C3)C(=O)N(C)[C@@H](C3CCCC3)C(=O)N(C)[C@H](C(=O)N(C)CC)CC(=O)N(C)[C@H]3CCCc4ccc(cc4)C[C@@H](C(=O)N(C)CC(=O)N[C@@H](CCc4ccc(Cl)c(Cl)c4)C(=O)N2C1)N1CC/C=C\C[C@@H](C1=O)N(C)C(=O)CN(C)C(=O)[C@H]([C@@H](C)CC)NC3=O [PP3089] | B (a compound having 3 or more and less than 10 is denoted as B) | 27 nM | B (a compound having 3 or more and less than 10 is denoted as B) |
| CCO[C@@H]1C[C@H]2C(=O)N(C)C3(CC(C)(C)C3)C(=O)N(C)[C@@H](C3CCCC3)C(=O)N(C)[C@H](C(=O)N(C)C)CC(=O)N(C)[C@H]3CCCCCCc4ccc(cc4)C[C@@H](C(=O)N(C)CC(=O)N[C@@H](CCc4ccc(C(F)(F)F)c(OC)c4)C(=O)N2C1)N1CC/C=C\C[C@@H](C1=O)N(C)C(=O)CN(C)C(=O)[C@H]([C@@H](C)CC)NC3=O [PP3090] | B (a compound having 3 or more and less than 10 is denoted as B) | 1.3 nM | A (a compound having 10 or more and less than 20 is denoted as A) |
| CCCO[C@@H]1C[C@H]2C(=O)NC3(CC(C)(C)C3)C(=O)N(C)[C@@H](C3CCCC3)C(=O)N(C)[C@H](C(=O)N(C)C)CC(=O)N(C)[C@H]3CCCCc4ccc(cc4)C[C@@H](C(=O)N(C)CC(=O)N[C@@H](CCc4ccc(Cl)c(Cl)c4)C(=O)N2C1)N1CC/C=C\C[C@@H](C1=O)N(C)C(=O)CN(C)C(=O)[C@H]([C@@H](C)CC)NC3=O [PP3092] | A (a compound having 10 or more and less than 20 is denoted as A) | 7.4 nM | A (a compound having 10 or more and less than 20 is denoted as A) |
| CCCO[C@@H]1C[C@H]2C(=O)NC3(CC(C)(C)C3)C(=O)N(C)[C@@H](C3CCCC3)C(=O)N(C)[C@H](C(=O)N3CCCC3)CC(=O)N(C)[C@H]3CCCCc4ccc(cc4)C[C@@H](C(=O)N(C)CC(=O)N[C@@H](CCc4ccc(C(F)(F)F)c(OC)c4)C(=O)N2C1)N1CC/C=C\C[C@@H](C1=O)N(C)C(=O)CN(C)C(=O)[C@H]([C@@H](C)CC)NC3=O [PP3094] | B (a compound having 3 or more and less than 10 is denoted as B) | 2.2 nM | A (a compound having 10 or more and less than 20 is denoted as A) |
| CCC[C@H]1C(=O)N[C@@H]([C@@H](C)CC)C(=O)N(C2CC2)CC(=O)N(C)[C@H]2C/C=C\CCN(C2=O)[C@@H](Cc2ccc(C(F)(F)F)cc2)C(=O)N(C)CC(=O)N[C@@H](CCc2ccc(C(F)(F)F)c(OC)c2)C(=O)N2C[C@H](OCC)C[C@H]2C(=O)N(C)C2(CCC2)C(=O)N(C)[C@@H](C2CCCC2)C(=O)N(C)[C@H](C(=O)N2CCCCC2)CC(=O)N1C [PP3095] | A (a compound having 10 or more and less than 20 is denoted as A) | 33.7 nM | A (a compound having 10 or more and less than 20 is denoted as A) |
| CCC[C@H]1C(=O)N[C@@H]([C@@H](C)CC)C(=O)N(C2CC2)CC(=O)N(C)[C@H]2C/C=C\CCN(C2=O)[C@@H](Cc2ccc(C)cc2)C(=O)N(C)CC(=O)N[C@@H](CCc2ccc(C(F)(F)F)c(OC)c2)C(=O)N2C[C@H](OCC)C[C@H]2C(=O)N(C)C2(CCC2)C(=O)N(C)[C@@H](C2CCCC2)C(=O)N(C)[C@H](C(=O)N2CCCCC2)CC(=O)N1C [PP3096] | A (a compound having 10 or more and less than 20 is denoted as A) | 35.8 nM | A (a compound having 10 or more and less than 20 is denoted as A) |
| CCC[C@H]1C(=O)N[C@@H]([C@@H](C)CC)C(=O)N(C2CC2)CC(=O)N(C)[C@H]2C/C=C\CCN(C2=O)[C@@H](Cc2ccc(C(F)(F)F)cc2)C(=O)N(C)CC(=O)N[C@@H](CCc2ccc(C(F)(F)F)c(OC)c2)C(=O)N2C[C@H](OCC)C[C@H]2C(=O)N(C)C2(CCC2)C(=O)N(C)[C@@H](C2CCCC2)C(=O)N(C)[C@H](C(=O)N2CCCC2)CC(=O)N1C [PP3097] | A (a compound having 10 or more and less than 20 is denoted as A) | 5.4 nM | A (a compound having 10 or more and less than 20 is denoted as A) |
| CCC[C@H]1C(=O)N[C@@H]([C@@H](C)CC)C(=O)N(C2CC2)CC(=O)N(C)[C@H]2C/C=C\CCN(C2=O)[C@@H](Cc2ccc(C)cc2)C(=O)N(C)CC(=O)N[C@@H](CCc2ccc(C(F)(F)F)c(OC)c2)C(=O)N2C[C@H](OCC)C[C@H]2C(=O)N(C)C2(CCC2)C(=O)N(C)[C@@H](C2CCCC2)C(=O)N(C)[C@H](C(=O)N2CCCC2)CC(=O)N1C [PP3098] | A (a compound having 10 or more and less than 20 is denoted as A) | 4.7 nM | A (a compound having 10 or more and less than 20 is denoted as A) |
| CCC[C@H]1C(=O)N[C@@H]([C@@H](C)CC)C(=O)N2CCC[C@H]2C(=O)N(C)[C@H]2C/C=C\CCN(C2=O)[C@@H](Cc2ccc(C(F)(F)F)cc2)C(=O)N(C)CC(=O)N[C@@H](CCc2ccc(C(F)(F)F)c(OC)c2)C(=O)N2C[C@H](OCC)C[C@H]2C(=O)N(C)C2(CCC2)C(=O)N(C)[C@@H](C2CCCC2)C(=O)N(C)[C@H](C(=O)N2CCCCC2)CC(=O)N1C [PP3099] | A (a compound having 10 or more and less than 20 is denoted as A) | 13.3 nM | A (a compound having 10 or more and less than 20 is denoted as A) |
| CCC[C@H]1C(=O)N[C@@H]([C@@H](C)CC)C(=O)N2CCC[C@H]2C(=O)N(C)[C@H]2C/C=C\CCN(C2=O)[C@@H](Cc2ccc(C)cc2)C(=O)N(C)CC(=O)N[C@@H](CCc2ccc(C(F)(F)F)c(OC)c2)C(=O)N2C[C@H](OCC)C[C@H]2C(=O)N(C)C2(CCC2)C(=O)N(C)[C@@H](C2CCCC2)C(=O)N(C)[C@H](C(=O)N2CCCCC2)CC(=O)N1C [PP3100] | B (a compound having 3 or more and less than 10 is denoted as B) | 15 nM | A (a compound having 10 or more and less than 20 is denoted as A) |
